The results in this text go back to ChEMBL document CHEMBL2074183, “Purification of the human apical conjugate export pump MRP2 reconstitution and functional characterization as substrate-stimulated ATPase” (Eur J Biochem, 1999).

The target of this series is ATP-binding cassette sub-family C member 2 (Homo sapiens, UniProt Q92887). Briefly: TP_TRANSPORTER: ATP hydrolysis in MRP2 reconstituted into proteoliposome. It is filed as functional, subcellular.
Chain of ATP-binding cassette sub-family C member 2 (Q92887 whole entry): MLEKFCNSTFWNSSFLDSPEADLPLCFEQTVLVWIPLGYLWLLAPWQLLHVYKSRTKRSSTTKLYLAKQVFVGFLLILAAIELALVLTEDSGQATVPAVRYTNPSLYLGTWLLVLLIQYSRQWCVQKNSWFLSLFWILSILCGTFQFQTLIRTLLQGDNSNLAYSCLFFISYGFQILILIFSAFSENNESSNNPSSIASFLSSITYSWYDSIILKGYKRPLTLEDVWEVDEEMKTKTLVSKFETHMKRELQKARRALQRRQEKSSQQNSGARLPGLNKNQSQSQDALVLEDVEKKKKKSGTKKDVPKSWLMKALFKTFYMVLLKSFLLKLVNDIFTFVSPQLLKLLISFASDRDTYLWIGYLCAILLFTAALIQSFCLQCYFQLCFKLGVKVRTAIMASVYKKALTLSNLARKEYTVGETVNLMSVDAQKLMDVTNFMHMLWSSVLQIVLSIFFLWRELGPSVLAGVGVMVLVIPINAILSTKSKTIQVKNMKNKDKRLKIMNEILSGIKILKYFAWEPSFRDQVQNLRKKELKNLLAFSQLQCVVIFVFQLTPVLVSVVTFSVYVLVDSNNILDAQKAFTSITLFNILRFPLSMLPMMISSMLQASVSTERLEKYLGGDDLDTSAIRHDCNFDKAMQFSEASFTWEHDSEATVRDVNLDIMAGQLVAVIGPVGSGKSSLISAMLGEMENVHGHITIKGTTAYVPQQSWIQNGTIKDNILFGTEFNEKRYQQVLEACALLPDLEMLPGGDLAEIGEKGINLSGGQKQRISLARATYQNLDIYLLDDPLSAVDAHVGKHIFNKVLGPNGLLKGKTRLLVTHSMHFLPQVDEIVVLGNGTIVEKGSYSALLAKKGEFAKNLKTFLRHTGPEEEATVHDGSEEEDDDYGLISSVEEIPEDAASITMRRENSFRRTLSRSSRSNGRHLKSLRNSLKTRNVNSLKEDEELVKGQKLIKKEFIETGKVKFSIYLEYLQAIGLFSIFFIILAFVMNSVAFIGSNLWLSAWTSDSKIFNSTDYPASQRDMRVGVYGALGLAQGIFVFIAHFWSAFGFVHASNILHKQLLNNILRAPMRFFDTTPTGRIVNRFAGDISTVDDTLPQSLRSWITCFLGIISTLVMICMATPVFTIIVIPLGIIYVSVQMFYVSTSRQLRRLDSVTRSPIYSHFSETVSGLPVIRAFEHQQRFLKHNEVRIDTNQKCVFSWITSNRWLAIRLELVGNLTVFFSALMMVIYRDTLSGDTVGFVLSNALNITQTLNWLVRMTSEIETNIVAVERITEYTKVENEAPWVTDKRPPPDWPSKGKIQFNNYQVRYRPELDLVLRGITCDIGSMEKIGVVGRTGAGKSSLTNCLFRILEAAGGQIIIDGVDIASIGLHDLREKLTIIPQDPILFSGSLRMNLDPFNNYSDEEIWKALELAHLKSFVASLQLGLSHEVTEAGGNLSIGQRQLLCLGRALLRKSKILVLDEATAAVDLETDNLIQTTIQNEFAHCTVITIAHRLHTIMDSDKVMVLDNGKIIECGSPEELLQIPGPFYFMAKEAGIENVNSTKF

`N[C@@H](CCC(=O)N[C@@H](CS)C(=O)NCC(=O)O)C(=O)O` [GLUTATHIONE]: the Activity result was “substrate [+]”.

For `CCCCCCCCCCSC[C@H](NC(=O)CC[C@H](N)C(=O)O)C(=O)NCC(=O)O`, the Activity entry was “substrate [+]”.
